The source of these data is patent US12090204B2, “Photodynamic therapy compositions and methods of use thereof” (Pinnacle Biologics, Inc., priority 2020, dated 2024).

Where only a bound is given, the exact number is not on record here.

One data set has as its system P. acnes (+). Nature of the data set: porfimer sodium aPDT, 48 hour biofilm culture. Type of data set: cell-based, Proprionibacterium acnes (Cutibacterium acnes). To be noted: 630 nm, kill at 100 J/cm2 (light dose 75-100 J/cm2), porfimer sodium 250 μg/mL. As for the experimental part:
(§1) Bacteria were routinely cultured using tryptic soy broth or agar at 37° C. in a 5% CO2 incubator. Bacteria were isolated and suspended with 0.9% NaCl to an Optical Density (OD) of 0.1 taken at 630 nm, to generate the inoculum used for either planktonic or biofilm assays.
(§2) The colony forming units (CFU) per mL of the starting inoculum for every experiment was determined by dilution plating. Control samples were exposed to laser at 630 nm in the absence of porfimer sodium, porfimer sodium in the absence of laser exposure, or in saline alone in the absence of porfimer sodium and 630 nm laser light. All experimental samples were dilution plated to enumerate viable CFU's. Three independent replicates were performed for each reaction condition per strain per assay. […]
(§3) Bacteria were exposed to 630 nm laser light via a fiber optic with a lens affixed to the distal end to provide a uniform diverging light field. […] Power output of the laser was measured using a UDT/Gamma Scientific 371 optical power meter and an integrating sphere. […]
(§4) Biofilms were formed on glass coupons in culture dishes containing a bacterial inoculum for 48 hours under conditions specific to the strain. […] Power output of the laser was measured using a UDT/Gamma Scientific 371 optical power meter and an integrating sphere. […]

A short description of data set [1]: in vitro human skin permeation, flow through diffusion cell. The class given is in vitro ADME. Conditions: 24 hours post application. As for the experimental part: A study was completed to show the ability of the formulation to deliver the drug into human skin in an in vitro setting, while retaining the API within the appropriate skin layers.
In this experiment, TEWL for each diffusion cell would was measured and recorded before test article applications. A range of not more than 25 g/m2/h will be acceptable for this study. An automated in-line flow through diffusion cell system (PermeGear Collector FC 33, Version 3.1) was used to assess drug in the skin permeation experiment. Test articles were uniformly dispensed onto the skin tissue surface using a positive displacement pipette, set to deliver 7.8 μL. The study was performed under dark environment and closed to ambient conditions. […] The swabs and the tape strips were analyzed upon request. […] The separated samples were placed in respective pre-weighed labelled vials and weight of tissues were recorded.
Epidermal and dermal samples were processed and homogenized while maintaining a dark environment using the following protocol: 500 μL of homogenizing mixture, Water: Acetonitrile, 1:1 (v/v), was added to the labelled tubes containing the skin samples. […] The following samples were analyzed for drug content: Receptor solution samples at different time-points; skin samples (epidermis and dermis for each cell at the final time point), tape strips and cotton swabs analyzed for mass balance determination. […]

The test system of a further data set is P. anaerobius (+). Nature of the data set: porfimer sodium aPDT, planktonic culture. To be noted: 630 nm, kill at 75 J/cm2 (light dose 50-100 J/cm2), porfimer sodium 150 μg/mL. The class given is cell-based, Peptostreptococcus anaerobius. As for the experimental part:
as §1
Experiments using planktonic cultures were carried out using M. catarrhalis, as a standard for further comparisons and to determine the effective drug concentration, porfimer sodium incubation time and light dose parameters which would provide an effective cell kill at the level of 5-7 logs. Once determined the experiments were repeated for all other bacterial strains examined.
The colony forming units (CFU) per mL of the starting inoculum for every experiment was determined by dilution plating. […]
as §3, §4

Data set [2] has as its system planktonic and biofilm bacterial populations. In words: porfimer sodium photodynamic therapy in vitro, overall summary. The class given is cell-based. As for the experimental part: This study evaluated the bactericidal efficacy of porfimer sodium based photodynamic therapy against standard and antibiotic resistant bacterial strains in planktonic and biofilm cultures. The primary efficacy endpoint was the overall cell kill analysis as determined by the enumeration of viable colony forming assays post PDT treatments as analyzed using the unpaired students two-tailed t test on log transformed data.
Planktonic cultures were prepared by adding bacteria to glass vials with saline and porfimer sodium to a final concentration ranging from 125 μg/ml to 150 μg/ml.
Biofilms were formed on glass coupons in culture dishes containing a bacterial inoculum for 48 hours under conditions specific to the strain. The glass coupon attached biofilms were then rinsed with saline, by dipping method, prior to the administration of the porfimer sodium. The biofilms were incubated in the dark for 15-30 minutes with a reconstituted saline solution of porfimer sodium at final concentrations ranging from 75 μg/ml-250 μg/ml. The porfimer sodium treated biofilms were then exposed to light doses at 630 nm light of 50-200 J/cm^2 at a power density of 150 milliwatts per cm^2. […] Power output of the laser was measured using a UDT/Gamma Scientific 371 optical power meter and an integrating sphere. […]

For the next data set, the system named is F. nucleatum (−). Nature of the data set: porfimer sodium aPDT, 48 hour biofilm culture. The class given is cell-based, Fusobacterium nucleatum. To be noted: 630 nm, kill at 100 J/cm2 (light dose 75-100 J/cm2), porfimer sodium 250 μg/mL. As to the method: as §1, §2, §3, §4

As for porfimer sodium, the Rate of kill with P. acnes (+) is listed as 7Log; in the data set with P. anaerobius (+) it was 5Log; in the data set with F. nucleatum (−) it was 3Log. Moreover, the “skin layer where porfimer sodium permeation was found” value in data set [1] is “predominantly found in the epidermal layers of the skin”. In addition, the “log reductions in bacterial loads” value in data set [2] is 5-6 log. Moreover, the “reduction in bacterial loads” value in data set [2] was over 99%.
